Measured values from patent US5110976A, “Insecticidal composition comprising more than one active ingredient” (priority 1985, dated 1992).
≈ marks a conversion by molar mass, not a printed value. Entries after “also recorded” stand apart in the source; their conditions may differ.

Assays:
T. confusum = assay: Activity as function of time, toxic symptoms (Table 16); type: in vivo, flour beetle (T. confusum), imagos
How it was run: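 T. confusum imagos exposed in Petri dishes to filter-paper discs impregnated with isomer solutions in 1:2 oil/acetone, acetone evaporated; 3 replicates of 15 insects per dose. Insects lying on their backs counted at successive time points, expressed as percent.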

Colorado potato beetle = assay: Topical test on Colorado potato beetle (Table 14); type: in vivo, Colorado potato beetle (Leptinotersa decemlineata), imago
Procedure: In Table 14 the activity on Colorado potato beetle is shown.
The test materials are dissolved in 2-ethoxyethanol (Cellosolve). One 0.3 μl drop of the solution is applied to the abdominal sterna of the imago. The treatment is carried out by using 2 parallels and 10 insects for each dose. […]

Tribolium confusum [1] = assay: Contact test on Tribolium confusum (Table 12); type: in vivo
How it was run: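 Compound in 1:2 oil/acetone impregnated onto 9 cm filter paper discs; after acetone evaporation, 15 insects per Petri dish exposed by contact, three replicates per dose. Mortality read at 24 hours and corrected by Abbott's formula.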

tribolium confusum [2] = assay: Comparative contact test (Table 15); type: in vivo, flour-beetle (Tribolium confusum), imago; settings: 24 h
Procedure: (§1) The active ingredient is dissolved in a 1:2 mixture of oil and acetone; filter paper discs (Whatman No. 1, diameter 9 cm) are impregnated with the solutions of the corresponding stereoisomers and enantiomer-pairs, respectively. The acetone is allowed to evaporate, whereupon the insects are exposed to filter papers discs placed in Petri-dishes. Three parallels are used on each dose and 15 insects are placed into each Petri-dish. The percental mortality is determined after 24 hours. The corrected percent mortality is calculated by means of the Abbot Formula.
(§2) The comparative test of Ia, Ib and a 40:60 mixture of Ia:Ib is carried out on bean weevil (Acanthoscelides obtectus), flour-beetle, (Tribolium confusum), house fly (Musca domestica) and sheep maggot fly (Lucillia sericata). The test method described is Example 41.

Acanthoscelides obtectus = assay: Comparative contact test (Table 15); type: in vivo, bean weevil (Acanthoscelides obtectus), imago; settings: Acanthoscelides obtectus, 24 h
Procedure: as §1, §2

A. matricariae = assay: Direct contact test on pupae (Table 26); type: in vivo
Procedure: Mature pupae of A. matricariae on paprika leaves in Petri-dishes are exposed to a direct spray of the active ingredients. Two or three days before emergence paprika leaves with parasitized pupae are used. The leaves are laid on moistened filter paper in a plastic Petri-dish.
Application of treatment: See Example 57.
The pieces of leaf are transferred after treatment to clean Petri-dish bottoms. The trays are stored in a climatic chamber at 20° C. temperature, 70% relative humidity and a light-dark cycle of 16-8 h. Surviving pupae hatch after 2-3 days. The numbers of hatched and dead pupae are counted.

Musca domestica [3] = assay: Comparative contact test (Table 15); type: in vivo, house fly (Musca domestica), imago; settings: 24 h
Procedure: as §1, §2

Tribolium confusum [4] = assay: Contact test, mixtures of Ia and Ib of various ratio (Table 13); type: in vivo, flour beetle (Tribolium confusum); settings: Tribolium confusum, 24 h
Procedure: as §1
In Table 13 the insecticidal effect of mixtures of enantiomer-pairs Ia and Ib of various ratio is shown on flour beetle (Tribolium confusum). The test method is that disclosed in Example 43.

Hyphantria cunea = assay: Topical test on fall webworm (Table 18); type: in vivo, fall wetworm (Hyphantria cunea), L7-L8 larvae; settings: Hyphantria cunea, topical, 24 h
Procedure: The active ingredients are dissolved in 2-ethoxy-ethanol and the solutions are applied in the form of 0.2 μl droplets onto the back of fall wetworm (Hyphantria cunea) of L7 -L8 larvae stage. The treated worms are placed on strawberry leaves in Petri-dishes. The test is carried out by using […], 2 parallels and 10 insects for each dose. The killed worms are counted after 24 hours and the percental mortality rate is calculated.

Musca domestica [5] = assay: Filter paper disc contact test (Table 11); type: in vivo, house fly (Musca domestica); settings: Musca domestica, 24 h
How it was run: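 Stereoisomers in 1:2 oil/acetone were applied to 9 cm filter paper discs, the acetone evaporated, and discs placed in Petri dishes with 15 flies each, three replicates per dose. Mortality was scored at 24 h and corrected by Abbott's formula.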

Lucillia sericata = assay: Comparative contact test (Table 15); type: in vivo, sheep maggot fly (Lucillia sericata), imago; parameters: key: % mortality after 24 h, Abbott-corrected; settings: 1440 min
Procedure: as §1, §2

Tetranychus urticae = assay: Potter Tower spray on mite-infested leaves (Table 19); type: in vivo, mites (Tetranychus urticae); settings: Tetranychus urticae, 24 h, mortality after 24 hours; read-out: approx. LD50
Procedure: Leaves already infested with mites (Tetranychus urticae) were sprayed under Potter Tower. Mortality after 24 hours on the treated leaves was compared with the control.

CC1(C)[C@H](C(=O)O[C@H](C#N)c2cccc(Oc3ccccc3)c2)[C@@H]1C=C(Cl)Cl (relative stereo) [Ia]
% of insects showing toxic symptoms (T. confusum; 30 minutes): 0% | % of insects showing toxic symptoms (T. confusum; 30 minutes, 0.33 mg/disc): 0% | % of insects showing toxic symptoms (T. confusum; 30 minutes, 1.00 mg/disc): 0% | % of insects showing toxic symptoms (T. confusum; 30 minutes, 3.00 mg/disc): 33% | % of insects showing toxic symptoms (T. confusum; 60 minutes): 0% | % of insects showing toxic symptoms (T. confusum; 60 minutes, 0.33 mg/disc): 0% | % of insects showing toxic symptoms (T. confusum; 60 minutes, 1.00 mg/disc): 16% | % of insects showing toxic symptoms (T. confusum; 60 minutes, 3.00 mg/disc): 88% | % of insects showing toxic symptoms (T. confusum; 120 minutes): 0% | % of insects showing toxic symptoms (T. confusum; 120 minutes, 0.33 mg/disc): 14% | % of insects showing toxic symptoms (T. confusum; 120 minutes, 1.00 mg/disc): 66% | % of insects showing toxic symptoms (T. confusum; 120 minutes, 3.00 mg/disc): 100% | % of insects showing toxic symptoms (T. confusum; 180 minutes): 10% | % of insects showing toxic symptoms (T. confusum; 180 minutes, 0.33 mg/disc): 49% | % of insects showing toxic symptoms (T. confusum; 180 minutes, 1.00 mg/disc): 100% | % of insects showing toxic symptoms (T. confusum; 180 minutes, 3.00 mg/disc): 100% | mortality at 0.05 µg/beetle (Colorado potato beetle; Leptinotarsa decemlineata, topical, read-out: 24 hours' mortality %, 0.05 μg/beetle): 50% | mortality at 0.1 µg/beetle (Colorado potato beetle; Leptinotarsa decemlineata, topical, read-out: 24 hours' mortality %, 0.10 μg/beetle): 55% | mortality at 0.2 µg/beetle (Colorado potato beetle; Leptinotarsa decemlineata, topical, read-out: 24 hours' mortality %, 0.20 μg/beetle): 75% | mortality at 0.4 µg/beetle (Colorado potato beetle; Leptinotarsa decemlineata, topical, read-out: 24 hours' mortality %, 0.40 μg/beetle): 80% | comparative activity (Colorado potato beetle; imago of Colorado potato beetle): more active than Ib | mortality at 330 µg/disc (Tribolium confusum [1]; Tribolium confusum, 24 h, 0.33 mg/disc): 65% | mortality at 1000 µg/disc (Tribolium confusum [1]; Tribolium confusum, 24 h, 1.00 mg/disc): 94% | mortality at 3000 µg/disc (Tribolium confusum [1]; Tribolium confusum, 24 h, 3.00 mg/disc): 100% | synergism between the members of the enantiomer-pair (Tribolium confusum [1]; in vivo): does not take place; also recorded: no similar synergism takes place | mortality at 20 µg/disc (tribolium confusum [2]; 0.02 mg/disc): 0% | mortality at 70 µg/disc (tribolium confusum [2]; 0.07 mg/disc): 18% | mortality at 220 µg/disc (tribolium confusum [2]; 0.22 mg/disc): 51% | mortality at 670 µg/disc (tribolium confusum [2]; 0.67 mg/disc): 100% | mortality at 2000 µg/disc (tribolium confusum [2]; 2.0 mg/disc): 100% | mortality at 6000 µg/disc (tribolium confusum [2]; 6.0 mg/disc): 100% | mortality at 20 µg/disc (Acanthoscelides obtectus; 0.02 mg/disc): 10% | mortality at 70 µg/disc (Acanthoscelides obtectus; 0.07 mg/disc): 37% | mortality at 220 µg/disc (Acanthoscelides obtectus; 0.22 mg/disc): 63% | mortality at 670 µg/disc (Acanthoscelides obtectus; 0.67 mg/disc): 95% | mortality at 2000 µg/disc (Acanthoscelides obtectus; 2.0 mg/disc): 100% | mortality at 6000 µg/disc (Acanthoscelides obtectus; 6.0 mg/disc): 100% | Mortality % (A. matricariae; 1 ppm): 0% | Mortality % (A. matricariae; 5 ppm): 0% | Mortality % (A. matricariae; 10 ppm): 12.5% | Mortality % (A. matricariae; 33 ppm): 77.0% | mortality at 20 µg/disc (Musca domestica [3]; 0.02 mg/disc): 36% | mortality at 70 µg/disc (Musca domestica [3]; 0.07 mg/disc): 63% | mortality at 220 µg/disc (Musca domestica [3]; 0.22 mg/disc): 88% | mortality at 670 µg/disc (Musca domestica [3]; 0.67 mg/disc): 100% | mortality at 2000 µg/disc (Musca domestica [3]; 2.0 mg/disc): 100% | mortality at 6000 µg/disc (Musca domestica [3]; 6.0 mg/disc): 100% | mortality at 60 µg/disc (Tribolium confusum [4]; 0.06 mg/disc): 14% | mortality at 250 µg/disc (Tribolium confusum [4]; 0.25 mg/disc): 54% | mortality at 20 µg/disc (Tribolium confusum [4]; 0.02 mg/disc): 0% | mortality at 1000 µg/disc (Tribolium confusum [4]; 1.00 mg/disc): 100% | mortality at 0.023 µg/disc (Hyphantria cunea; 0.023 (μg/disc)): 40% | mortality at 0.047 µg/disc (Hyphantria cunea; 0.047 (μg/disc)): 60% | mortality at 0.094 µg/disc (Hyphantria cunea; 0.094 (μg/disc)): 65% | mortality at 0.188 µg/disc (Hyphantria cunea; 0.188 (μg/disc)): 80% | mortality at 0.375 µg/disc (Hyphantria cunea; 0.375 (μg/disc)): 90% | mortality at 40 µg/disc (Musca domestica [5]; 0.04 mg/disc): 44% | mortality at 110 µg/disc (Musca domestica [5]; 0.11 mg/disc): 84% | mortality at 330 µg/disc (Musca domestica [5]; 0.33 mg/disc): 100% | mortality at 1000 µg/disc (Musca domestica [5]; 1.00 mg/disc): 100% | mortality at 3000 µg/disc (Musca domestica [5]; 3.00 mg/disc): 100% | mortality (Lucillia sericata; 0.02 mg/disc): 0 | mortality (Lucillia sericata; 0.07 mg/disc): 30 | mortality (Lucillia sericata; 0.22 mg/disc): 29 | mortality (Lucillia sericata; 0.67 mg/disc): 57 | mortality (Lucillia sericata; 2.0 mg/disc): 60 | mortality (Lucillia sericata; 6.0 mg/disc): 65 | LC50 (Tetranychus urticae): ~0.056 µg/mL (≈ 0.135 µM)
